Data as given in patent US7202258B2, “α- and β-amino acid hydroxyethylamino sulfamic acid derivatives useful as retroviral protease inhibitors” (G.D. Searle & Co., priority 1992, dated 2007).
pEC50, pIC50: −log10 of the molar value. Like-named read-outs stand apart in the source and are kept apart here.

Legend:
HIV protease = biological target: T1, HIV protease (Human immunodeficiency virus type 1 group M subtype B, UniProt P04585); assay: HIV protease enzyme assay (fluorescence, substrate 2-Ile-Nle-Phe(p-NO2)-Gln-ArgNH2); assay type: biochemical
T1 construct: HIV protease is diluted in the assay buffer to a final enzyme concentration of 12.3 nanomolar, based on a molecular weight of 10,780
Source text: The compounds of the present invention are effective HIV protease inhibitors. Utilizing an enzyme assay as described below, the compounds set forth in the examples herein disclosed inhibited the HIV enzyme. The preferred compounds of the present invention and their calculated IC50 (inhibiting concentration 50%, i.e., the concentration at which the inhibitor compound reduces enzyme activity by 50%) values are shown in Table 17. The enzyme method is described below. The substrate is 2-Ile-Nle-Phe(p-NO2)-Gln-ArgNH2. The positive control is MVT-101 (Miller, M. et al, Science, 246, 1149 (1989)]The assay conditions are as follows: • Assay buffer: 20 mM sodium phosphate, […] • 20% glycerol • 1 mM EDTA • 1 mM DTT • 0.1% CHAPS
The above described substrate is dissolved in DMSO, then diluted 10 fold in assay buffer. Final substrate concentration in the assay is 80 μM.
HIV protease is diluted in the assay buffer to a final enzyme concentration of 12.3 nanomolar, based on a molecular weight of 10,780.
The final concentration of DMSO is 14% and the final concentration of glycerol is 18%. The test compound is dissolved in DMSO and diluted in DMSO to 10× the test concentration; 10 μl of the enzyme preparation is added, the materials mixed and then the mixture is incubated at ambient temperature for 15 minutes. The enzyme reaction is initiated by the addition of 40 μl of substrate. The increase in fluorescence is monitored at 4 time points (0, 8, 16 and 24 minutes) at ambient temperature. Each assay is carried out in duplicate wells.

HIV-1 = assay: microbe, parasite or virus in culture; conditions: Human immunodeficiency virus 1, CCRF-CEM, 168 h, read-out: EC50 (nm)
Procedure: Assays were performed in 96-well tissue culture plates. CEM cells, a CD4^+ cell line, were grown in RPMI-1640 medium (Gibco) supplemented with a 10% fetal calf serum and were then treated with polybrene (2 μg/ml). An 80 μl volume of medium containing 1×10^4 cells was dispensed into each well of the tissue culture plate, no each well was added a 100 μl volume of test compound dissolved in tissue culture medium (or medium without test compound as a control) to achieve the desires final concentration and the cells were incubated at 37° C. for 1 hour. […] HIV-1 was diluted in culture medium to a concentration of 5×10^4 TCID50 per ml (TCID50=the dose of virus that infects 50% of cells in tissue culture), and a 20 μL volume of the virus sample (containing 1000 TCID50 of virus) was added to wells containing test compound and to wells containing only medium (infected control cells). Several wells received culture medium without virus (uninfected control cells). Likewise, the intrinsic toxicity of the test compound was determined by adding medium without virus to several wells containing test compound.
In experiments 2 and 4 the final concentrations of test compounds were 1, 10, 100 and 500 μg/ml. Either azidothymidine (AZT) or dideoxyinosine (ddI) was included as a positive drug control. […] DMSO was added to all control wells at an appropriate concentration.
Following the addition of virus, cells were incubated at 37° C. in a humidified, 5% CO2 atmosphere for 7 days. Test compounds could be added on days 0, 2 and 5 if desired. On day 7, post-infection, the cells in each well were resuspended and a 100 μl sample of each cell suspension was removed for assay. A 20 μL volume of a 5 mg/ml solution of 3-(4,5-dimethylthiazol-2-yl)-2,5-diphenyltetrazolium bromide (MTT) was added to each 100L cell suspension, and the cells were incubated for 4 hours at 27° C. in a 5% CO2 environment. […] To each sample was added 100 μl of 10% sodium dodecylsulfate in 0.01 N HCl to lyse the cells, and samples were incubated overnight. The absorbance at 590 nm was determined for each sample using a Molecular Devices microplate reader. Absorbance values for each set of wells is compared to assess viral control infection, uninfected control cell response as well as test compound by cytotoxicity and antiviral efficacy.

CEM cells = assay: Intrinsic toxicity of test compound in uninfected CEM cells (MTT); assay type: cell-based; conditions: human, 7 days
Source text: Methods, 20, 309–321 (1988). […] A Frozen culture c.

[1] = Table 18, compounds of Table 1C, read-out: IC50 or % Inhibition: IC50

| SMILES | pIC50 (HIV protease; Table 17, read-out: IC50) | pIC50 (HIV protease; [1]) | pEC50 (HIV-1) | pIC50 (HIV protease) | TD50 (nm) (CEM cells) |
| --- | --- | --- | --- | --- | --- |
| COc1ccc(COC(=O)NC[C@@H](C)C(=O)N[C@@H](Cc2ccccc2)[C@H](O)CN(CC(C)C)S(=O)(=O)NC(C)(C)C)cc1 [Entry 5] | 7.89 |  |  |  |  |
| CC(C)(C)NS(=O)(=O)N(CC1CCCCC1)C[C@@H](O)[C@H](Cc1ccccc1)NC(=O)OCc1ccccc1 [I] |  | 5.77 |  |  |  |
| CCCCNS(=O)(=O)N(CC(C)C)C[C@@H](O)[C@H](Cc1ccccc1)NC(=O)[C@@H](NC(=O)CN(C)C)C(C)(C)C [Entry 1] |  |  | 6.78 | 7.40 | 56,000 nM |
| CC(C)CN(C[C@@H](O)[C@H](Cc1ccccc1)NC(=O)[C@H](CC(N)=O)NC(=O)c1ccc2ccccc2n1)S(=O)(=O)N1CCN(C)CC1 [Entry 3] |  |  | 7.38 | 8.52 | 28,000 nM |
| COC(=O)C(C)(C)NS(=O)(=O)N(CC(C)C)C[C@@H](O)[C@H](Cc1ccccc1)NC(=O)OCc1ccccc1 [J] |  | 5.57 |  |  |  |
| CCCCNS(=O)(=O)N(CC(C)C)C[C@@H](O)[C@H](Cc1ccccc1)NC(=O)[C@H](CC(N)=O)NC(=O)c1ccc2ccccc2n1 [Entry 2] |  |  | 7.64 | 8.30 | 65,000 nM |
| CC(C)CN(C[C@@H](O)[C@H](Cc1ccccc1)NC(=O)OCc1ccccc1)S(=O)(=O)N1CCCCC1 [G] |  | 7.18 |  |  |  |
| CC(C)CN(C[C@@H](O)[C@H](Cc1ccccc1)NC(=O)[C@H](CC(N)=O)NC(=O)c1ccc2ccccc2n1)S(=O)(=O)NC(C)(C)C [Entry 4] |  |  | > 7.82 | 8.70 | 39,000 nM |
